# Patent US7718406B2, “Substrates for TAFI (A)” (DSM IP Assets B.V., priority 2002, dated 2010)
# Columns and labels:
# [1] = biological target: T1, TAFIa (Homo sapiens, UniProt Q96IY4); assay: Splitting of thiaarginine and thialysine substrates by TAFIa (Ellman's reagent, absorption at 405-412 nm); assay type: biochemical; details: substrate final concentration 174 μM; TAFIa final concentration 17 μg/ml; RT, 10 min; pH 7.4
# T1 construct: purchased Enzyme Research Laboratory
# T1 sequence (Q96IY4 115-423): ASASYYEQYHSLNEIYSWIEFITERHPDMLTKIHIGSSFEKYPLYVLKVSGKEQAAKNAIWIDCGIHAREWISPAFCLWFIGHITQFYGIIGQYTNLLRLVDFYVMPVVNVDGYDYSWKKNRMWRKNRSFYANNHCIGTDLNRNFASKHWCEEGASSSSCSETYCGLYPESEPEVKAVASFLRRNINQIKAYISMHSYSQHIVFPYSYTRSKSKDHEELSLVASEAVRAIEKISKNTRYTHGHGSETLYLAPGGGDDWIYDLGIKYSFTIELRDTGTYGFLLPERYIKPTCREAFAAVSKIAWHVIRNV
# Experimental: Principle: TAFIa is determined as shown in Scheme 1. In a first step, the substrate is hydrolyzed by TAFIa in such a way that a thioamino acid (thiaarginine or thialysine) is released. These instable intermediates are rapidly decomposed into 2-mercaptoethylguanidine or 3-mercaptopropylamine, respectively. These mercapto compounds react with Ellman's reagent (5,5′-dithio-bis-(2-nitrobenzoic acid)), thereby releasing the strongly yellow 3-carboxy-4-nitrothiophenol that can be measured using a spectrophotometer at 405-412 nm. The free thiol content measured is directly proportional to the quantity of substrate hydrolyzed by TAFIa and thereby allows a quantitative analysis of the enzyme activity.
# Enzyme assay: The enzyme activity is measured at room temperature by using a 10 mM substrate stock solution in DMSO. TAFI of human origin can be obtained in a stock solution of 360 μg/ml from Enzyme Research Laboratory or over blood plasma. Activation of TAFI to TAFIa occurred with thrombin (2.7 U/ml), the activation of which was produced with 30 μg of thrombomodulin. Excessive thrombin activity was eliminated by adding the synthetic inhibitor NAPAP. The measurement was performed on microtiter plates.
# The absorption increase at 405-412 nm was recorded for 10 minutes.
# in buffer (20 mM HEPES, 5 mM CaCl2, 0.01% Tween 80; pH 7.4) • incubate for 5 min at 25° C. Measurement:
# (§1) • measure for 10 min at RT Results: • Splitting of thiaarginine and thialysine substrates (final concentration 174 μM) by TAFIa (final concentration 17 μg/ml) • in brackets the value for carboxypeptidase B • Substances of comparison A and B from Bull. Korean. Chem. Soc. 1998, 19(2), 189-193 • ΔE=Extinction variation at 405 nm
# [2] = biological target: T2, carboxypeptidase B (Homo sapiens, UniProt P15086); assay: Splitting of thiaarginine and thialysine substrates by carboxypeptidase B; assay type: biochemical; details: substrate final concentration 174 μM
# T2 sequence (P15086 111-417): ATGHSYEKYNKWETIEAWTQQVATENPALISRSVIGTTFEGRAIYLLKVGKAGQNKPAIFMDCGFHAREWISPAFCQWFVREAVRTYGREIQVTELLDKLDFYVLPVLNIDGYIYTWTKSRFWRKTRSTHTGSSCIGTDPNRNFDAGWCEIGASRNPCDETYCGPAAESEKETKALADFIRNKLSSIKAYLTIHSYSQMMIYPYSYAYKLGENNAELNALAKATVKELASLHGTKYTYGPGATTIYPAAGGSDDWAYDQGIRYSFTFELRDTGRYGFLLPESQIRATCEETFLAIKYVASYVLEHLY
# Experimental: [drawing 2] have been described as substrates for carboxypeptidase B (Bull. Korean. Chem. Soc. 1998, 19(2), 189-193). […] Detection of CPB by means of compound A is carried out according to the following Scheme 1.
# as §1
Molecule,"ΔE/min (extinction variation at 405 nm), splitting by TAFIa [1]","ΔE/min (extinction variation at 405 nm), value in brackets for carboxypeptidase B [2]"
"Cl.N=C(N)NCCSC(NC(=O)[C@H](CCCCNC(=O)OCc1ccccc1)NC(=O)c1ccccc1)C(=O)O (stereo partly drawn) [No. 4269, benzoyl-(L)-lysyl-(ε-benzyloxycarbonyl)-α-(D,L)-(2-guanidinoethylthio)-glycine hydrochloride salt]",0.108 ΔE/min,(0.018) ΔE/min
"NCCCSC(NC(=O)[C@H](CCCCNC(=O)OCc1ccccc1)NC(=O)c1ccccc1)C(=O)O.O=C(O)C(F)(F)F (stereo partly drawn) [No. 4339, benzoyl-(L)-lysyl-(ε-benzyloxycarbonyl)-α-(D,L)-(3-aminopropylthio)-glycine trifluoracetic acid salt]",0.055 ΔE/min,
Boc-F-K(Boc)-G(GUS)-OH × HCl [No. 4298],0.043 ΔE/min,(0.034) ΔE/min
Boc-K(Tos)-G(GUS)-OH × HCl [No. 4273],0.014 ΔE/min,(0.048) ΔE/min
Boc-K(Z)-G(GUS)-OH × TFA [No. 4275],0.041 ΔE/min,(0.028) ΔE/min
Boc-K(Z)-G(α-SPrA)-OH × TFA [No. 4341],0.054 ΔE/min,
Bz-P-K(Boc)-G(GUS)-OH × TFA [No. 4300],0.012 ΔE/min,(0.072) ΔE/min
Bz-V-G(GUS)-OH × TFA [No. 4334],0.034 ΔE/min,
Bz-V-G(α-SPrA)-OH × TFA [No. 4336],0.053 ΔE/min,
Z-A-K(Boc)-G(GUS)-OH × HCl [No. 4302],0.042 ΔE/min,(0.059) ΔE/min
